Data published in patent US6632981B1, “DNA sequences encoding polypeptides having beta-1,3-glucanase activity” (Novartis Finance Corporation, priority 1988, dated 2003).

Legend:
[1] = test system: chemically regulatable chimeric genes coding for GUS, AHAS or BT; experiment: Primer extension assay for mRNA of chemically regulatable chimeric genes; format: in vivo; conditions: callus or regenerated plant material from transgenic plants; level proportional to amount of regulator applied
Method: 50 g of total RNA is lyophilized in a 500 l Eppendorf tube. The RNA is resuspended in 30 l of radiolabeled probe solution and heated to 70′ C. for 10 minutes. The tube is slowly cooled to 37° C. and allowed to incubate overnight. Without removing the tube from the 37° C. water bath, 2 l of 10×reverse-transcriptase buffer (500 mM Tris-HCl, pH 7.5, 400 mM KCl, 30 mM MgCl2), 1 l 5 mg/ml bovine serum albumin, 5 l 100 mM dithiothreitol, 5 l 10×dNTPs (10 mM of each dNTP in H2O), 3 l H 20, 2 l RNasin (80 units), and 2 l reverse transcriptase (400 units) are added and the reaction is incubated at 37° C. for 30 minutes. To stop the reaction, 5 l of 3 M sodium acetate, pH 5, and 150 l absolute ethanol are added. The tube is left at −20° C. for 30 minutes, the precipitate is collected by centrifugation, washed with 80% ethanol and allowed to air-dry. The precipitate is resuspended in 10-20 l of loading dye (90% formamide, 0.05% bromophenol blue, 0.05% xylene cyanol, 1 mM EDTA) and the extension products are separated on a 6% sequencing gel (Maniatis, T. et al., supra). Extension products are visualized by autoradiography.
Plant materials induced and harvested as in Examples 140 to 142 are assayed for the induction of mRNA species by the isolation of RNA and the primer extension assay as described in Example 6.
The level of mRNA is proportional to the amount of regulator applied.

[2] = test system: cucumber chitinase protein; experiment: Cucumber chitinase ELISA in transgenic plants carrying cucumber chitinase genomic constructs after leaf treatment; format: in vivo, tobacco; parameters: key: —: Indicates that sample has no detectable level of chitinase protein
Method: Once the transgenic plants are transferred to soil, they are grown 4-5 weeks before treatment. The following solutions are applied to the leaves with sterile paintbrushes:
3. Methyl benzo-1,2,3-thiadiazole-7-carboxylate. The solution is made by resuspending a wettable powder containing a formulation of the chemical with 25% active ingredient in sterile water at a concentration of 1 mg/ml.
4. Methyl 2,6-dichloroisonicotinate, prepared as above. Alternatively, 30 ul of 10 mM sodium phosphate buffer, pH 7.0, or 30 ul of the same buffer containing tobacco mosaic virus (50-100 pfu/30 ul) is applied to the leaves which have been sprinkled with carborundum. The buffers are distributed over the whole treated leaf by gentle rubbing.
The plants are allowed to continue to grow for seven days. The treated leaves are then harvested, frozen in liquid nitrogen and stored at −80° C. until they are assayed.
Frozen leaf tissue is ground in a mortar with a pestle in the presence of liquid nitrogen to produce a fine powder. 0.33 g of each tissue sample is added to 1 ml extraction buffer (50 mM Tris-HCl, pH 8.5, 0.2M 2-mercaptoethanol, 2 mM phenyl methyl sulfonyl fluoride, 2 mM benzamidine, 10 mM epsilon-aminocaproic acid, 1 mM leueptine) and the sample homogenized for one minute with an Ultra Turrax Mixer (shaft #S25N-8G, Tekmar Co. Cincinnati, Ohio). The samples are then centrifuged at 48,000×g for fifteen minutes at 4° C. and the supernatant removed from the pelleted material. The extracts are diluted at least 1:50 in ELISA diluent (101 mM sodium phosphate, pH 7.4, 140 mM sodium chloride, 0.05% Tween 20, 0.02% sodium azide, 1% BSA).
A microtiter plate is coated with monoclonal antibody specific to the cucumber chitinase protein at 2 ug/ml in borate-buffered saline (100 mM boric acid, 25mM sodium borate, 75 mM sodium chloride; pH 8.5) using 50 ul per well. The plate is incubated overnight at 4° C. The plate is washed with ELISA wash buffer (10 mM Tris-HCl, pH 8.0, 0.05% Tween 20, 3 mM sodium azide) and BSA blocking solution (10 mM sodium phosphate, pH 7.4, 140 mM sodium chloride, 0.02% sodium azide, 1% BSA) is added to completely cover each well. Incubation is for at least 30 minutes at room temperature.
The microtiter plate is washed with ELISA wash buffer and 50 ul of extract is added to the appropriate well. 50 ul of each of 10 chitinase protein standards (ranging from 0 ng/ml to 31.64 ng/ml) was also added to the appropriate well and the plate is incubated for two hours at 4° C. The plate is washed with ELISA wash buffer and 50 ul of rabbit polyclonal antibody to the cucumber chitainase protein (diluted 1:15,000 in ELISA diluent) is added to the well and incubated for one hour at 37° C. After washing with ELISA wash buffer, 50 ul of goat anti-rabbit conjugated to alkaline phosphatase (1:500 in ELISA diluent) is added to each well and incubated at 37° C. for one hour. The plate is then washed and 50 ul alkaline phosphatase substrate solution (0.6 mg/ml p-nitrophenyl phosphate in 0.5 mM magnesium chloride and 10% diethanolamine) is added to each well. After a 30 minute incubation at room temperature, 50 ul of 3N sodium hydroxide is added to each well to stop the reaction.
The plate is read at 405 nm and 492 nm on an HP Genenchem ELISA plate reader. The output values are expressed as A(405 nm)-A(492 nm)−0.092 to allow for correction of p-nitrophenyl phosphate as substrate. The chitinase standards for each plate are graphed logarithmically. The amount of chitinase protein in each sample is determined from the standard curve. If the amount of chitinase in any sample is close to the upper limit of the curve, the sample is assayed again at a greater dilution. Final results are expressed in the table below in ug chitinase per gram tissue.

SMILES: COC(=O)c1cc(Cl)nc(Cl)c1 [MDCINA, Methyl 2,6-dichloroisonicotinate]
- level of mRNA of the chimeric gene (GUS, AHAS or BT primer), primer extension assay [1]: elevated levels of mRNA
- ELISA ASSAY RESULTS (ug chitinase/g tissue) ([2]; line Bam-1 (2001/BamChit), leaves harvested after seven days, water 0.066, buffer —): —
- ELISA ASSAY RESULTS (ug chitinase/g tissue) ([2]; line Bam-3 (2001/BamChit), seven days, water —, buffer —): —
- ELISA ASSAY RESULTS (ug chitinase/g tissue) ([2]; line Bam-4 (2001/BamChit), seven days, water —, buffer —): —
- ELISA ASSAY RESULTS (ug chitinase/g tissue) ([2]; line Bam-8 (2001/BamChit), seven days, water —, buffer —): —
- ELISA ASSAY RESULTS (ug chitinase/g tissue) ([2]; line Bam-9 (2001/BamChit), seven days, water —, buffer —): —
- ELISA ASSAY RESULTS (ug chitinase/g tissue) ([2]; line Bam-10 (2001/BamChit), seven days, water 0.059, buffer 0.084): 2.378 ug chitinase/g tissue
- ELISA ASSAY RESULTS (ug chitinase/g tissue) ([2]; line Bam-12 (2001/BamChit), seven days, water —, buffer —): —
- ELISA ASSAY RESULTS (ug chitinase/g tissue) ([2]; line Bam-14 (2001/BamChit), seven days, water —, buffer —): —
- ELISA ASSAY RESULTS (ug chitinase/g tissue) ([2]; line Bam-15 (2001/BamChit), seven days, water —, buffer —): —
- ELISA ASSAY RESULTS (ug chitinase/g tissue) ([2]; line Bam-16 (2001/BamChit), seven days, water —, buffer —): 0.864 ug chitinase/g tissue
- ELISA ASSAY RESULTS (ug chitinase/g tissue) ([2]; line Bam-17 (2001/BamChit), seven days, water —, buffer —): —
- ELISA ASSAY RESULTS (ug chitinase/g tissue) ([2]; line Bam-19 (2001/BamChit), seven days, water —, buffer —): —
- ELISA ASSAY RESULTS (ug chitinase/g tissue) ([2]; line Bam-21 (2001/BamChit), seven days, water —, buffer —): —
- ELISA ASSAY RESULTS (ug chitinase/g tissue) ([2]; line Bam-23 (2001/BamChit), seven days, water —, buffer —): —
- ELISA ASSAY RESULTS (ug chitinase/g tissue) ([2]; line Bam-24 (2001/BamChit), seven days, water —, buffer —): —
- ELISA ASSAY RESULTS (ug chitinase/g tissue) ([2]; line Bam-25 (2001/BamChit), seven days, water —, buffer —): —
- ELISA ASSAY RESULTS (ug chitinase/g tissue) ([2]; line Bam-26 (2001/BamChit), seven days, water —, buffer —): —
- ELISA ASSAY RESULTS (ug chitinase/g tissue) ([2]; line Nco-2 (2001/NcoChit), seven days, water —, buffer —): —
- ELISA ASSAY RESULTS (ug chitinase/g tissue) ([2]; line Nco-3 (2001/NcoChit), seven days, water —, buffer —): —
- ELISA ASSAY RESULTS (ug chitinase/g tissue) ([2]; line Nco-5 (2001/NcoChit), seven days, water —, buffer —): —
- ELISA ASSAY RESULTS (ug chitinase/g tissue) ([2]; line Nco-8 (2001/NcoChit), seven days, water —, buffer —): —
- ELISA ASSAY RESULTS (ug chitinase/g tissue) ([2]; line Nco-9 (2001/NcoChit), seven days, water —, buffer —): —
- ELISA ASSAY RESULTS (ug chitinase/g tissue) ([2]; line Nco-10 (2001/NcoChit), seven days, water —, buffer —): —
- ELISA ASSAY RESULTS (ug chitinase/g tissue) ([2]; line Nco-11 (2001/NcoChit), seven days, water —, buffer —): —
- ELISA ASSAY RESULTS (ug chitinase/g tissue) ([2]; line Nco-15 (2001/NcoChit), seven days, water —, buffer —): —
- ELISA ASSAY RESULTS (ug chitinase/g tissue) ([2]; line Nco-16 (2001/NcoChit), seven days, water 0.555, buffer 0.566): 0.286 ug chitinase/g tissue
- ELISA ASSAY RESULTS (ug chitinase/g tissue) ([2]; line Nco-17 (2001/NcoChit), seven days, water —, buffer —): —
- ELISA ASSAY RESULTS (ug chitinase/g tissue) ([2]; line Sal-2 (2001/SalChit), seven days, water —, buffer —): —
- ELISA ASSAY RESULTS (ug chitinase/g tissue) ([2]; line Sal-3 (2001/SalChit), seven days, water —, buffer —): 0.047 ug chitinase/g tissue
- ELISA ASSAY RESULTS (ug chitinase/g tissue) ([2]; line Sal-4 (2001/SalChit), seven days, water —, buffer —): —
- ELISA ASSAY RESULTS (ug chitinase/g tissue) ([2]; line Sal-5 (2001/SalChit), seven days, water —, buffer —): —
- ELISA ASSAY RESULTS (ug chitinase/g tissue) ([2]; line Sal-7 (2001/SalChit), seven days, water —, buffer —): —
- ELISA ASSAY RESULTS (ug chitinase/g tissue) ([2]; line Sal-8 (2001/SalChit), seven days, water —, buffer —): —
- ELISA ASSAY RESULTS (ug chitinase/g tissue) ([2]; line Sal-9 (2001/SalChit), seven days, water —, buffer —): —
- ELISA ASSAY RESULTS (ug chitinase/g tissue) ([2]; line Sal-11 (2001/SalChit), seven days, water —, buffer —): —
- ELISA ASSAY RESULTS (ug chitinase/g tissue) ([2]; line Sal-12 (2001/SalChit), seven days, water —, buffer —): —
- ELISA ASSAY RESULTS (ug chitinase/g tissue) ([2]; line Sal-13 (2001/SalChit), seven days, water —, buffer —): —
- ELISA ASSAY RESULTS (ug chitinase/g tissue) ([2]; line Sal-14 (2001/SalChit), seven days, water —, buffer —): —
- ELISA ASSAY RESULTS (ug chitinase/g tissue) ([2]; line Sal-15 (2001/SalChit), seven days, water —, buffer —): —
